Data from ChEMBL document CHEMBL4616726, “Optimization of the Linker Domain in a Dimeric Compound that Degrades an r(CUG) Repeat Expansion in Cells” (J Med Chem, 2020).
Calls of active or inactive are those of the source. The rule behind the calls is not given here.

What was measured:
r(CUG) repeat expansion [1] = assay: Induction of 5'-biotinylated r(CUG)12 RNA repeat (unknown origin) degradation assessed as disruption of r(CUG)12-MBNL1 complex formation incubated for 15 mins by TR-FRET assay; format: nucleic-acid assay
r(CUG) repeat expansion [2] = assay: Binding affinity to r(CUG)12 RNA repeat (unknown origin) by fluorescence based assay; format: nucleic-acid assay
r(CUG) repeat expansion [3] = assay: Induction of r(CUG)exp RNA repeat in human DM1-patient derived myotubes assessed as reduction in number of foci containing r(CUG)exp-MBNL1 foci at 5 uM by RNA fluorescence in situ hybridization assay; format: nucleic-acid assay
[4] = Drug localization in nucleus of human DM1-patient derived myotubes by live-cell fluorescence microscopy; format: ADME, subcellular
r(CUG) repeat expansion [5] = assay: Induction of r(CUG)exp RNA repeat in human DM1-patient derived myotubes assessed as improvement in MBNL1 exon 5 splicing defect at 5 uM by RT-qPCR analysis relative to control; format: nucleic-acid assay
[6] = Drug uptake in human DM1-patient derived myotubes by fluorescence based assay; format: ADME; details: in vitro
r(CUG) repeat expansion [7] = assay: Binding affinity to r(CUG)8 RNA repeat (unknown origin) by fluorescence based assay; format: nucleic-acid assay
r(CUG) repeat expansion [8] = assay: Induction of r(CUG)exp RNA repeat in human DM1-patient derived myotubes assessed as reduction in number of foci containing r(CUG)exp-MBNL1 foci at 5 uM by immunofluorescence assay; format: nucleic-acid assay
r(CUG) repeat expansion [9] = assay: Induction of r(CUG)exp RNA repeat in human DM1-patient derived myotubes assessed as improvement in MBNL1 exon 5 splicing defect by RT-qPCR analysis; format: nucleic-acid assay
[10] = Drug localization in cytoplasm of human DM1-patient derived myotubes by live-cell fluorescence microscopy; format: ADME, subcellular
[11] = Toxicity in human DM1-patient derived myotubes at 5 uM

CN1CCN(c2ccc3[nH]c(-c4ccc5[nH]c(-c6cccc(OCCCC(=O)N(C)CCCCN(CC(N)=O)C(=O)[C@@H]7CCCN7C(=O)[C@@H]7CCCN7C(=O)[C@@H]7CCCN7C(=O)[C@@H]7CCCN7C(=O)[C@@H]7CCCN7C(=O)CCCOc7cccc(-c8nc9cc(-c%10nc%11cc(N%12CCN(C)CC%12)ccc%11[nH]%10)ccc9[nH]8)c7)c6)nc5c4)nc3c2)CC1
Activity (r(CUG) repeat expansion [1]): Active

CN1CCN(c2ccc3[nH]c(-c4ccc5[nH]c(-c6cccc(OCCCC(=O)N(C)CCCCN(CC(N)=O)C(=O)[C@@H]7CCCN7C(=O)[C@@H]7CCCN7C(=O)CCCOc7cccc(-c8nc9ccc(-c%10nc%11ccc(N%12CCN(C)CC%12)cc%11[nH]%10)cc9[nH]8)c7)c6)nc5c4)nc3c2)CC1
EC50 (r(CUG) repeat expansion [2]): 150 nM
Activity (r(CUG) repeat expansion [3]): Active
Drug uptake [4]: Active
Activity (r(CUG) repeat expansion [5]): 30%
Drug uptake [6]: Active
EC50 (r(CUG) repeat expansion [7]): > 10000 nM
Activity (r(CUG) repeat expansion [8]): Active
Activity (r(CUG) repeat expansion [9]): Dose-dependent effect
IC50 (r(CUG) repeat expansion [1]): 5300 nM
Drug uptake [10]: Active

C[C@@H](NC(=O)CCCOc1cccc(-c2nc3ccc(-c4nc5ccc(N6CCN(C)CC6)cc5[nH]4)cc3[nH]2)c1)C(=O)N[C@H](C)C(=O)N[C@H](C)C(=O)N[C@H](C)C(=O)N(CCCCN(C)C(=O)CCCOc1cccc(-c2nc3cc(-c4nc5cc(N6CCN(C)CC6)ccc5[nH]4)ccc3[nH]2)c1)CC(N)=O
Drug uptake [4]: Active
Activity (r(CUG) repeat expansion [5]): inactive
Activity (r(CUG) repeat expansion [1]): Active
Drug uptake [10]: Active

C[C@@H](C(=O)N(C)[C@@H](C)C(=O)N(C)[C@@H](C)C(=O)N(C)[C@@H](C)C(=O)N(CCCCN(C)C(=O)CCCOc1cccc(-c2nc3cc(-c4nc5cc(N6CCN(C)CC6)ccc5[nH]4)ccc3[nH]2)c1)CC(N)=O)N(C)C(=O)CCCOc1cccc(-c2nc3ccc(-c4nc5ccc(N6CCN(C)CC6)cc5[nH]4)cc3[nH]2)c1
EC50 (r(CUG) repeat expansion [2]): 280 nM
Activity (r(CUG) repeat expansion [3]): Active
Drug uptake [4]: Active
Activity (r(CUG) repeat expansion [5]): 30%
Drug uptake [6]: Active
EC50 (r(CUG) repeat expansion [7]): > 10000 nM
Activity (r(CUG) repeat expansion [8]): Active
Activity (r(CUG) repeat expansion [1]): Active

CN1CCN(c2ccc3[nH]c(-c4ccc5[nH]c(-c6cccc(OCCCC(=O)N(C)CCCCN(CC(N)=O)C(=O)[C@@H]7CCCN7C(=O)[C@@H]7CCCN7C(=O)[C@@H]7CCCN7C(=O)CCCOc7cccc(-c8nc9cc(-c%10nc%11cc(N%12CCN(C)CC%12)ccc%11[nH]%10)ccc9[nH]8)c7)c6)nc5c4)nc3c2)CC1
Activity (r(CUG) repeat expansion [1]): Active

CN1CCN(c2ccc3[nH]c(-c4ccc5[nH]c(-c6cccc(OCCCC(=O)N(C)CCCCN(CC(N)=O)C(=O)[C@H](Cc7ccc(O)cc7)NC(=O)[C@H](Cc7ccc(O)cc7)NC(=O)[C@H](Cc7ccc(O)cc7)NC(=O)[C@H](Cc7ccc(O)cc7)NC(=O)CCCOc7cccc(-c8nc9ccc(-c%10nc%11ccc(N%12CCN(C)CC%12)cc%11[nH]%10)cc9[nH]8)c7)c6)nc5c4)nc3c2)CC1
Activity [11]: Toxic
